Experimental data from paper PMC10967822, “Antimicrobial Indole-3-Carboxamido-Polyamine Conjugates Target Bacterial Membranes and Are Antibiotic Potentiators” (Biomolecules, 2024).
Values after ≈ are worked out from the molar mass of the structure shown. Values joined by “and” are separate entries in the source; they are usually repeats but may differ in a detail not shown here. Identical values can stand only once. Like-named read-outs stand apart in the source and are kept apart here. Marks after values point to notes of the source that are not given here.

Key:
E. coli ATCC 25922 [1] = assay: Erythromycin potentiation against E. coli; assay type: cell-based, Escherichia coli; settings: erythromycin at 2 µg/mL (2.7 µM); for Erythro/Ec: concentration required to restore erythromycin activity (combination MIC): mean n = 3
Source text: (§1) These measurements were independently repeated in triplicate.

S. aureus ATCC 25923 [2] = settings: ref Cadelis et al. [13]; cited from earlier work
MRSA ATCC 43300 [3] = system: MRSA ATCC 43300; design: method as in Cadelis et al. [13]; settings: ref Cadelis et al. [13]; cited from earlier work
P. aeruginosa ATCC 27853 [4] = settings: cited from earlier work
E. coli ATCC 25922 [5] = system: E. coli ATCC 25922; design: method as in Cadelis et al. [13]; settings: ref Cadelis et al. [13]; cited from earlier work
[6] = system: K. pneumoniae ATCC 700603; design: method as in Cadelis et al. [13]; settings: ref Cadelis et al. [13]; cited from earlier work
A. baumannii ATCC 19606 [7] = system: A. baumannii ATCC 19606; design: method as in Cadelis et al. [13]; settings: ref Cadelis et al. [13]; cited from earlier work
C. albicans ATCC 90028 [8] = system: C. albicans ATCC 90028; design: method as in Cadelis et al. [13]; settings: ref Cadelis et al. [13]; cited from earlier work
[9] = system: C. neoformans ATCC 208821; design: method as in Cadelis et al. [13]; settings: ref Cadelis et al. [13]; cited from earlier work
P. aeruginosa ATCC 27853 [10] = settings: cited from earlier work; remark: listed apart in the source
[11] = system: HEK293 human embryonic kidney cells; design: method as in Cadelis et al. [13]; settings: ref Cadelis et al. [13], read-out: Cytotoxicity IC50; cited from earlier work
human red blood cells [12] = settings: cited from earlier work
S. aureus ATCC 25923 [13] = assay: MIC, broth dilution, S. aureus; assay type: cell-based, Staphylococcus aureus
MRSA ATCC 43300 [14] = assay: MIC, broth microdilution (CO-ADD), MRSA; assay type: cell-based, methicillin-resistant S. aureus; settings: Staphylococcus aureus; MRSA ATCC 43300; top dose 32 µg/mL; read-out: MIC MRSA
P. aeruginosa ATCC 27853 [15] = assay: MIC, broth dilution, P. aeruginosa; assay type: cell-based, Pseudomonas aeruginosa; settings: Pseudomonas aeruginosa, ATCC27853
E. coli ATCC 25922 [16] = assay: MIC, broth dilution, E. coli; assay type: cell-based, Escherichia coli; settings: Escherichia coli, ATCC25922; E. coli ATCC 25922, 18 h
A. baumannii ATCC 19606 [17] = assay: MIC, broth microdilution (CO-ADD), A. baumannii; assay type: cell-based, Acinetobacter baumannii; settings: Acinetobacter baumannii, ATCC19606, top dose 32 µg/mL
C. albicans ATCC 90028 [18] = assay: Antifungal MIC (CO-ADD), C. albicans; assay type: cell-based; settings: Candida albicans, ATCC90028, top dose 32 µg/mL
How it was run: (§2)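 MIC for C. neoformans determined by OD570–600 following a further 3 h with resazurin (0.006% final), whereas C. albicans was read directly at OD530. Both grown static in YNB broth at 2.5 × 10^3 CFU/mL final inoculum, 35 °C for 36 h, from colonies cultured on YPD agar 3 days at 30 °C.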

[19] = system: C. neoformans ATCC 208821; assay: Antifungal MIC (CO-ADD), C. neoformans; assay type: cell-based; settings: Cryptococcus neoformans, ATCC208821, top dose 32 µg/mL
How it was run: as §2

P. aeruginosa ATCC 27853 [20] = assay: Doxycycline potentiation against P. aeruginosa; assay type: cell-based, Pseudomonas aeruginosa; settings: doxycycline at 2 µg/mL (4.5 µM)
Source text: as §1

[21] = Cytotoxicity assay (resazurin); assay type: cell-based; settings: human, HEK293 cells, mean n = 2
human red blood cells [22] = assay: Hemolytic assay; assay type: cell-based; settings: 10% hemolytic activity, mean n = 2
How it was run: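 Compounds were applied to saline-washed human red blood cells at 0.5 × 10^8 cells/mL, 37 °C, 1 h. Lysis was measured by supernatant absorbance at 405 nm, and concentrations giving 10% and 50% haemolysis were obtained by variable-slope curve fitting.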

S. aureus ATCC 25923 [23] = assay: Real-time growth curves, S. aureus; assay type: cell-based, Staphylococcus aureus; settings: for Concentration at which bacterial growth resumed after 2 h: S. aureus ATCC 25923, real-time growth
Method: The solutions of the compound at the concentrations of 2, 4, and 16 µg/mL were tested each in triplicate against S. aureus ATCC 25923. Typically, in a 96-well plate were placed 10 µL of 40, 80, and 320 µg/mL stock solutions of compound, as well as 190 µL of 5 × 10^5 CFU/mL of the selected bacterial suspension in brain heart infusion (BHI) broth. Positive controls containing only 200 µL of 5 × 10^5 CFU/mL of the bacterial suspension in BHI and negative controls containing only 200 µL of BHI broth were added. The plate was incubated at 37 °C in a TECAN Spark Reader (Roche Diagnostic, Meylan, France) and the real-time bacterial growth was followed by OD590 nm measurements every 20 min for 18 h.

P. aeruginosa PAO1 [24] = assay: Real-time growth curves, P. aeruginosa; assay type: cell-based, Pseudomonas aeruginosa
S. aureus ATCC 25923 [25] = assay: ATP efflux (membrane disruption), S. aureus; assay type: cell-based, Staphylococcus aureus; settings: S. aureus ATCC 25923, single dose 100 µg/mL, relative to squalamine
Method: (§3) A solution of the compound was prepared in twice-distilled water at a fixed concentration of 100 μg/mL. The different Gram-positive suspensions were prepared in MH II broth and were incubated at 37 °C. Then, 90 µL of each bacterial suspension was added to 10 µL of the compound solution and shaken for 20 s in the incubator at 37 °C. Subsequently, 50 µL of Luceferin–Luciferase reagent (Yelen, Marseille, France) was added to the mixture, and the luminescent signal was quantified with an Infinite M200 microplate reader (Tecan, Männedorf, Switzerland) for 6 readings spaced 30 s apart. The ATP concentration was quantified by internal sample addition. Squalamine (100 µg/mL) was used as the positive control to quantify the maximum level of ATP efflux and water as the negative control. This assay was performed in three independent experiments.

MRSA = assay: ATP efflux (membrane disruption), MRSA; assay type: cell-based, methicillin-resistant S. aureus; settings: single dose 100 µg/mL, relative to squalamine
Method: as §3

P. aeruginosa PAO1 [26] = assay: Nitrocefin hydrolysis assay (outer membrane permeabilization); assay type: cell-based, Pseudomonas aeruginosa; settings: P. aeruginosa PAO1, top dose 128 µg/mL
Method: Outer membrane permeabilization was measured using nitrocefin as a chromogenic substrate of periplasmic β-lactamase. A total of 10 milliliters of MH broth were inoculated with 0.1 mL of an overnight culture of PAO1 bacteria and grown at 37 °C until the OD600 reached 0.5. The remaining steps were performed at room temperature. The cells were recovered by centrifugation (4000 rpm for 20 min) and washed once in 20 mM potassium phosphate buffer (pH 7.2) containing MgCl2 (1 mM). After a second centrifugation, the pellet was resuspended and adjusted to OD600 of 0.5. Then, 50 µL of the desired compound was added to 100 µL of the cell suspension to obtain a final concentration varying from 3.9 µM to 250 µM. A total of 50 microliters of nitrocefin was then added to obtain a final concentration of 50 µg/mL. Nitrocefin hydrolysis was monitored spectrophotometrically by measuring the increase in absorbance at 490 nm. The assays were performed in 96-well plates using a M200 Pro Tecan (Tecan, Männedorf, Switzerland) spectrophotometer.

[27] = system: K. pneumoniae ATCC 700603; assay: MIC, broth microdilution (CO-ADD), K. pneumoniae; settings: top dose 32 µg/mL

## O=C(NCCCNCCCCNCCCNC(=O)c1c[nH]c2ccc(Br)cc12)c1c[nH]c2ccc(Br)cc12 [Compound 3, α,ω-di-(5-bromoindole-3-carboxamido)spermine]
E. coli ATCC 25922 [1]
  Erythro/Ec: concentration required to restore erythromycin activity (combination MIC): 100 µM
S. aureus ATCC 25923 [2]
  MIC Sa: 4.8 ^i µM
MRSA ATCC 43300 [3]
  MIC MRSA: 12.4 ^i µM
P. aeruginosa ATCC 27853 [4]; ref Cadelis et al. [13]
  MIC Pa: 200 ^i µM
E. coli ATCC 25922 [5]
  MIC Ec: 200 ^i µM
[6]
  MIC Kp: >50 ^i µM
A. baumannii ATCC 19606 [7]
  MIC Ab: >50 ^i µM
C. albicans ATCC 90028 [8]
  MIC Ca: 49.5 ^i µM
[9]
  MIC Cn: 12.4 ^i µM
P. aeruginosa ATCC 27853 [10]; doxycycline at 2 µg/mL (4.5 µM), P. aeruginosa ATCC 27853, ref Cadelis et al. [13]
  Dox/Pa: concentration required to restore doxycycline activity (combination MIC): 3.125 µM
P. aeruginosa ATCC 27853 [10]; doxycycline at 2 µg/mL, P. aeruginosa ATCC 27853, ref Cadelis et al. [13]
  Dox/Pa fold-change (intrinsic MIC / combination MIC): 64 fold
[11]
  IC50: > 50 µM
Human red blood cells [12]
  Hemolysis HC10: >50 ^c µM

## O=C(NCCCNCCCCCCNCCCNC(=O)c1c[nH]c2ccc(Br)cc12)c1c[nH]c2ccc(Br)cc12 [Compound 13b]
S. aureus ATCC 25923 [13]; S. aureus ATCC 25923, 18 h, read-out: MIC Sa
  MIC: 2.2 µM
S. aureus ATCC 25923 [13]; Staphylococcus aureus, ATCC25923, S. aureus ATCC 25923, 18 h, read-out: MIC Sa
  MIC: 2.2 µM
S. aureus ATCC 25923 [13]; Staphylococcus aureus, ATCC25923, read-out: MIC S. aureus (microdilution)
  MIC: 2 µg/mL
MRSA ATCC 43300 [14]
  MIC: ≤ 0.28 µM
P. aeruginosa ATCC 27853 [15]; P. aeruginosa ATCC 27853, 18 h, read-out: MIC Pa
  MIC: 71 µM
P. aeruginosa ATCC 27853 [15]; read-out: MIC P. aeruginosa (microdilution)
  MIC: 64 µg/mL
E. coli ATCC 25922 [16]
  MIC: 6.92 µM (≈ 4.67 µg/mL)
A. baumannii ATCC 19606 [17]
  MIC: ≤ 0.28 µM
C. albicans ATCC 90028 [18]
  MIC: > 35 µM
[19]
  MIC: ≤ 0.28 µM
P. aeruginosa ATCC 27853 [20]; P. aeruginosa ATCC 27853
  Dox/Pa fold-change (intrinsic MIC / combination MIC): 21 fold
P. aeruginosa ATCC 27853 [20]; P. aeruginosa ATCC 27853, mean n = 3
  Dox/Pa: concentration required to restore doxycycline activity (combination MIC): 3.46 µM
E. coli ATCC 25922 [1]; E. coli
  Erythro/Ec fold-change (intrinsic MIC / combination MIC): 1 fold
E. coli ATCC 25922 [1]
  Erythro/Ec: concentration required to restore erythromycin activity (combination MIC): 6.92 µM
[21]
  IC50 at 20 h: > 35 µM
Human red blood cells [22]
  Hemolysis HC10: >35 µM
S. aureus ATCC 25923 [23]; S. aureus ATCC 25923, 18 h
  Concentrations giving complete inhibition in real-time growth curves: 32 to 2 μg/mL and 35.5 to 2.2 μM
S. aureus ATCC 25923 [23]
  Concentration at which bacterial growth resumed after 2 h: 1 μg/mL and 1.1 μM
P. aeruginosa PAO1 [24]
  Concentration at which bacterial growth resumed after 4 h: 35.5 μM and 32 μg/mL
S. aureus ATCC 25923 [25]
  ATP release (membrane disruption): more potent of the two compounds
MRSA
  ATP release (membrane disruption): more potent of the two compounds
P. aeruginosa PAO1 [26]
  Outer membrane disruption (nitrocefin hydrolysis): able to disrupt the outer membrane only at the top dose
[27]
  MIC Kp: >35 µM

## O=C(Cc1c[nH]c2ccc(Br)cc12)NCCCNCCCCCCCNCCCNC(=O)Cc1c[nH]c2ccc(Br)cc12 [Compound 19, reference compound]
S. aureus ATCC 25923 [23]
  Concentration at which bacterial growth resumed after 2 h: 8.5 μM and 8 μg/mL
P. aeruginosa PAO1 [24]
  Concentration at which bacterial growth resumed after 4 h: 128 μg/mL and 135.5 μM
S. aureus ATCC 25923 [25]
  ATP release (membrane disruption): noticeably less active than the positive control squalamine
MRSA
  ATP release (membrane disruption): noticeably less active than the positive control squalamine
P. aeruginosa PAO1 [26]
  Outer membrane disruption (nitrocefin hydrolysis): inactive at all test doses
P. aeruginosa ATCC 27853 [4]
  MIC P. aeruginosa: 100 μg/mL and 106 μM
P. aeruginosa ATCC 27853 [10]; doxycycline potentiation
  Combined MIC with doxycycline against P. aeruginosa: 6.6 µM
  Fold enhancement with doxycycline against P. aeruginosa: 18 fold
